From patent publication US10105357B2, “Indication of antibiotic drugs for preparation of cancer inhibition pharmaceutical composition” (LAUNX BIOMEDICAL CO., LTD., priority 2014, dated 2018)

Experiments:
Type in all cases: cell-based, human
[1] = tested on: cancer cell lines; assay: Cell viability analysis (WST-1) on cancer cell lines; details: drug 10 μM, 72 hours; for Inhibitory effect on cancer cell line: WST-1, OD450 nm, Table 2: drugs which do not have significant inhibitory effect; for inhibition effect on different cancer cell lines: WST-1, Table 3
[2] = tested on: HeLa (Cervix Adenocarcinoma); assay: Cell viability analysis, cervical cancer HeLa; details: Homo sapiens, HeLa, 72 h, read-out: cell viability (survival rate), HeLa, drug 10 μM, 72 hours, WST-1, OD450 nm
[3] = tested on: HL-60 (Acute Promyelocytic Leukemia); assay: Cell viability analysis, leukemia HL-60; details: Homo sapiens, HL-60, 72 h, read-out: cell viability (survival rate), HL-60, drug 10 μM, 72 hours, WST-1, OD450 nm
[4] = tested on: PC3 (p53−) (Prostate Adenocarcinoma); assay: Cell viability analysis, prostate cancer PC3; details: Homo sapiens, 72 h, read-out: cell viability (survival rate), PC3, drug 10 μM, 72 hours, WST-1, OD450 nm
[5] = tested on: A375 (Amelanotic Melanoma); assay: Cell viability analysis, skin cancer A375; details: Homo sapiens, A-375, 72 h, read-out: cell viability (survival rate), A375, drug 10 μM, 72 hours, WST-1, OD450 nm
[6] = tested on: MCF7 (Mammary Gland, Adenocarcinoma); assay: Cell viability analysis, breast cancer MCF7; details: Homo sapiens, MCF7, 72 h, read-out: cell viability (survival rate), MCF7, drug 10 μM, 72 hours, WST-1, OD450 nm
[7] = tested on: A549 (Lung Adenocarcinoma); assay: Cell viability analysis, lung cancer A549; details: Homo sapiens, A549, 72 h, read-out: cell viability (survival rate), A549, drug 10 μM, 72 hours, WST-1, OD450 nm
[8] = tested on: TSGH-8301 (Urinary Bladder Carcinoma); assay: Cell viability analysis, bladder cancer TSGH-8301; details: Homo sapiens, 72 h, read-out: cell viability (survival rate), TSGH, drug 10 μM, 72 hours, WST-1, OD450 nm
[9] = tested on: AGS (Gastric Adenocarcinoma); assay: Cell viability analysis, gastric cancer AGS; details: Homo sapiens, 72 h, read-out: cell viability (survival rate), AGS, drug 10 μM, 72 hours, WST-1, OD450 nm
[10] = tested on: LoVo (Colorectal Adenocarcinoma); assay: Cell viability analysis, colon cancer LoVo; details: Homo sapiens, LoVo, 72 h, read-out: cell viability (survival rate), LoVo, drug 10 μM, 72 hours, WST-1, OD450 nm
[11] = tested on: HepG2 (Hepatocellular Carcinoma); assay: Cell viability analysis, hepatic cancer HepG2; details: Homo sapiens, HepG2, 72 h, read-out: cell viability (survival rate), HepG2, drug 10 μM, 72 hours, WST-1, OD450 nm
[12] = tested on: MKN-45 (Gastric Adenocarcinoma); assay: Cell viability analysis, gastric cancer MKN-45; details: Homo sapiens, MKN-45, 72 h, read-out: cell viability (survival rate), MKN-45, drug 10 μM, 72 hours, WST-1, OD450 nm
[13] = tested on: HI650 (Lung Adenocarcinoma); assay: Cell viability analysis, lung cancer HI650; details: Homo sapiens, NCI-H1650, 72 h, read-out: cell viability (survival rate), H1650, drug 10 μM, 72 hours, WST-1, OD450 nm

Bismuth Subcitrate Potassium
Inhibitory effect on cancer cell line [1]: 0
inhibition effect on different cancer cell lines [1]: significant inhibition effect

CCCCCCCCCCCCCCCC(=O)O[C@@H]1[C@@H](O)[C@@H](O)[C@@H]([C@H](NC(=O)[C@@H]2C[C@@H](CCC)CN2C)[C@H](C)Cl)O[C@@H]1SC.Cl [Clindamycin palmitate HCl]
inhibition effect on different cancer cell lines [1]: significant inhibition effect

NCC[C@H](O)C(=O)N[C@@H]1C[C@H](N)[C@@H](O[C@H]2O[C@H](CN)[C@@H](O)[C@H](O)[C@H]2O)[C@H](O)[C@H]1O[C@H]1O[C@H](CO)[C@@H](O)[C@H](N)[C@H]1O.O=S(=O)(O)O.O=S(=O)(O)O [Amikacin sulfate]
inhibition effect on different cancer cell lines [1]: significant inhibition effect

CO/N=C(\C(=O)N[C@@H]1C(=O)N2C(C(=O)O)=C(Cn3ccc(=N)n3CCO)CS[C@H]12)c1csc(N)n1.O=S(=O)(O)O [Cefoselis sulfate]
Inhibitory effect on cancer cell line [1]: 0
inhibition effect on different cancer cell lines [1]: significant inhibition effect

Spiramycin
inhibition effect on different cancer cell lines [1]: significant inhibition effect

C=CC1=C(C(=O)O)N2C(=O)[C@@H](NC(=O)/C(=N\O)c3csc(N)n3)[C@H]2SC1 [Cefdinir (Omnicef), Cefdinir]
viability at 10 µM [2]: 86.4%
viability at 10 µM [3]: 104%
viability at 10 µM [4]: 135%
viability at 10 µM [5]: 92.5%
viability at 10 µM [6]: 55.1%
viability at 10 µM [7]: 97%
viability at 10 µM [8]: 35.6%
viability at 10 µM [9]: 79.1%
viability at 10 µM [10]: 111%
viability at 10 µM [11]: 106%
viability at 10 µM [12]: 70.5%
viability at 10 µM [13]: 93.6%
